Data: the supplement of paper PMC6045584
± gives the standard deviation of the averaged measurements.

Legend:
[1] = compound: T1, NS(=O)(=O)OC[C@@H]1C[C@@H](n2ccc3c(N[C@H]4CCc5ccccc54)ncnc32)C[C@@H]1O [MLN-4924]; test: surviving fraction relative to DMSO-only wells; higher = less growth inhibition; settings: exposure time: 5 days
Method in brief: (§1)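 Luminescence normalised to the median of DMSO-only wells defines surviving fraction, with viability read by CellTiter-Glo. Signal was recorded after 10 minutes at room temperature, once log-phase tumour cell lines seeded at 250–500 cells per well in 384-well plates had spent 24 hours settling and then five days under continuous exposure to inhibitors at 0.5, 1, 5, 10, 50, 100, 500 and 1000 nM.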

[2] = compound: COc1cc2c(Oc3ccc(NC(=O)C4(C(=O)Nc5ccc(F)cc5)CC4)cc3F)ccnc2cc1OCCCN1CCOCC1 [FORETINIB]; test: area under dose-response curve of surviving fraction (unscaled, Aref=0) (surviving fraction x log10(nM)); higher = more resistant; settings: exposure time: 5 days; dose range 0.5-1000 nM
Method in brief: (§2)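 Three screens per tumour cell line were run in 384-well plates at eight inhibitor concentrations from 0.5 to 1000 nM over five days. Surviving fractions, from CellTiter-Glo luminescence normalised to DMSO-only wells, were fitted with 3-parameter logistic curves in the drc R package. The reported area under the curve is the unscaled activity area. It spans log10 dose, and Aref is 0.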

[3] = compound: CNCc1ccc(-c2[nH]c3cc(F)cc4c3c2CCNC4=O)cc1; test: as above; settings: exposure time: 5 days; dose range 0.5-1000 nM
Method in brief: as §2

[4] = compound: Cn1nnc2c(C(N)=O)ncn2c1=O [TEMOZOLOMIDE]; test: as above; settings: exposure time: 5 days; dose range 0.5-1000 nM
Method in brief: as §2

[5] = compound: T1, MLN-4924; test: as above; settings: exposure time: 5 days; dose range 0.5-1000 nM
Method in brief: as §2

[6] = compound: O=C(c1cc(Cc2n[nH]c(=O)c3ccccc23)ccc1F)N1CCN(C(=O)C2CC2)CC1 [OLAPARIB]; test: surviving fraction relative to DMSO-only wells; higher = less growth inhibition; settings: exposure time: 5 days
Method in brief: as §1

CCK81 LARGE INTESTINE
surviving fraction ([1]; 0.5 nM): 0.87 ± 0.11
surviving fraction ([1]; 1 nM): 0.814 ± 0.12
surviving fraction ([1]; 5 nM): 0.704 ± 0.15
surviving fraction ([1]; 10 nM): 0.794 ± 0.088
surviving fraction ([1]; 50 nM): 0.867 ± 0.07
surviving fraction ([1]; 100 nM): 0.831 ± 0.059
surviving fraction ([1]; 500 nM): 0.567 ± 0.066
surviving fraction ([1]; 1000 nM): 0.473 ± 0.065
area under dose-response curve [2]: 2.29
area under dose-response curve [3]: 2.66
area under dose-response curve [4]: 2.52
area under dose-response curve [5]: 2.47

G292 BONE
surviving fraction ([1]; 0.5 nM): 1.02 ± 0.031
surviving fraction ([1]; 1 nM): 1 ± 0.048
surviving fraction ([1]; 5 nM): 1.04 ± 0.017
surviving fraction ([1]; 10 nM): 1.03 ± 0.054
surviving fraction ([1]; 50 nM): 0.909 ± 0.049
surviving fraction ([1]; 100 nM): 0.623 ± 0.068
surviving fraction ([1]; 500 nM): 0.295 ± 0.011
surviving fraction ([1]; 1000 nM): 0.266 ± 0.019
surviving fraction ([6]; 0.5 nM): 1.01 ± 0.014
surviving fraction ([6]; 1 nM): 1.01 ± 0.037
surviving fraction ([6]; 5 nM): 1.01 ± 0.016
surviving fraction ([6]; 10 nM): 1.02 ± 0.017
surviving fraction ([6]; 50 nM): 0.977 ± 0.022
surviving fraction ([6]; 100 nM): 0.971 ± 0.046
surviving fraction ([6]; 500 nM): 0.872 ± 0.037
surviving fraction ([6]; 1000 nM): 0.831 ± 0.02
area under dose-response curve [2]: 2.74
area under dose-response curve [3]: 3.17
area under dose-response curve [4]: 3.33
area under dose-response curve [5]: 2.51

HCC38 BREAST
surviving fraction ([1]; 0.5 nM): 1.35 ± 0.069
surviving fraction ([1]; 1 nM): 1.48 ± 0.14
surviving fraction ([1]; 5 nM): 1.02 ± 0.14
surviving fraction ([1]; 10 nM): 1.22 ± 0.18
surviving fraction ([1]; 50 nM): 0.624 ± 0.064
surviving fraction ([1]; 100 nM): 0.269 ± 0.025
surviving fraction ([1]; 500 nM): 0.0757 ± 0.0075
surviving fraction ([1]; 1000 nM): 0.0803 ± 0.013
surviving fraction ([6]; 0.5 nM): 1.13 ± 0.12
surviving fraction ([6]; 1 nM): 1.04 ± 0.039
surviving fraction ([6]; 5 nM): 1.05 ± 0.26
surviving fraction ([6]; 10 nM): 1.05 ± 0.22
surviving fraction ([6]; 50 nM): 0.656 ± 0.17
surviving fraction ([6]; 100 nM): 0.6 ± 0.094
surviving fraction ([6]; 500 nM): 0.441 ± 0.098
surviving fraction ([6]; 1000 nM): 0.432 ± 0.074
area under dose-response curve [2]: 2.93
area under dose-response curve [3]: 2.19
area under dose-response curve [4]: 4.36
area under dose-response curve [5]: 2.17

HCC70 BREAST
surviving fraction ([1]; 0.5 nM): 1.06 ± 0.14
surviving fraction ([1]; 1 nM): 1.09 ± 0.06
surviving fraction ([1]; 5 nM): 1.07 ± 0.066
surviving fraction ([1]; 10 nM): 0.96 ± 0.071
surviving fraction ([1]; 50 nM): 0.582 ± 0.041
surviving fraction ([1]; 100 nM): 0.41 ± 0.029
surviving fraction ([1]; 500 nM): 0.14 ± 0.037
surviving fraction ([1]; 1000 nM): 0.103 ± 0.014
surviving fraction ([6]; 0.5 nM): 1.15 ± 0.043
surviving fraction ([6]; 1 nM): 1.08 ± 0.038
surviving fraction ([6]; 5 nM): 1.13 ± 0.082
surviving fraction ([6]; 10 nM): 1.15 ± 0.049
surviving fraction ([6]; 50 nM): 1.1 ± 0.16
surviving fraction ([6]; 100 nM): 1.05 ± 0.064
surviving fraction ([6]; 500 nM): 0.983 ± 0.069
surviving fraction ([6]; 1000 nM): 0.928 ± 0.12
area under dose-response curve [2]: 3.69
area under dose-response curve [3]: 3.67
area under dose-response curve [4]: 3.54
area under dose-response curve [5]: 2.21

HMLE3 BREAST
surviving fraction ([1]; 0.5 nM): 1.04 ± 0.046
surviving fraction ([1]; 1 nM): 1.08 ± 0.031
surviving fraction ([1]; 5 nM): 1.07 ± 0.016
surviving fraction ([1]; 10 nM): 1.25 ± 0.019
surviving fraction ([1]; 50 nM): 1.07 ± 0.016
surviving fraction ([1]; 100 nM): 0.698 ± 0.024
surviving fraction ([1]; 500 nM): 0.175 ± 0.017
surviving fraction ([1]; 1000 nM): 0.114 ± 0.025
surviving fraction ([6]; 0.5 nM): 1.01 ± 0.015
surviving fraction ([6]; 1 nM): 0.976 ± 0.039
surviving fraction ([6]; 5 nM): 1.09 ± 0.097
surviving fraction ([6]; 10 nM): 1.06 ± 0.057
surviving fraction ([6]; 50 nM): 0.972 ± 0.042
surviving fraction ([6]; 100 nM): 0.962 ± 0.12
surviving fraction ([6]; 500 nM): 0.911 ± 0.07
surviving fraction ([6]; 1000 nM): 0.835 ± 0.072
area under dose-response curve [2]: 2.9
area under dose-response curve [4]: 3.48
area under dose-response curve [5]: 2.48

HMT3552 BREAST
surviving fraction ([1]; 0.5 nM): 1.04 ± 0.012
surviving fraction ([1]; 1 nM): 1.11 ± 0.054
surviving fraction ([1]; 5 nM): 1.11 ± 0.062
surviving fraction ([1]; 10 nM): 1.11 ± 0.032
surviving fraction ([1]; 50 nM): 0.458 ± 0.03
surviving fraction ([1]; 100 nM): 0.295 ± 0.021
surviving fraction ([1]; 500 nM): 0.154 ± 0.008
surviving fraction ([1]; 1000 nM): 0.108 ± 0.0046
surviving fraction ([6]; 0.5 nM): 0.96
surviving fraction ([6]; 1 nM): 0.909
surviving fraction ([6]; 5 nM): 0.92
surviving fraction ([6]; 10 nM): 0.865
surviving fraction ([6]; 50 nM): 1.07
surviving fraction ([6]; 100 nM): 0.858
surviving fraction ([6]; 500 nM): 0.913
surviving fraction ([6]; 1000 nM): 0.742
area under dose-response curve [2]: 2.99
area under dose-response curve [3]: 2.94
area under dose-response curve [4]: 3.67
area under dose-response curve [5]: 2.14

HS57T BREAST
surviving fraction ([1]; 0.5 nM): 0.977 ± 0.059
surviving fraction ([1]; 1 nM): 0.977 ± 0.069
surviving fraction ([1]; 5 nM): 1.02 ± 0.064
surviving fraction ([1]; 10 nM): 1.01 ± 0.07
surviving fraction ([1]; 50 nM): 0.783 ± 0.093
surviving fraction ([1]; 100 nM): 0.523 ± 0.021
surviving fraction ([1]; 500 nM): 0.139 ± 0.015
surviving fraction ([1]; 1000 nM): 0.106 ± 0.0065
surviving fraction ([6]; 0.5 nM): 1.09 ± 0.06
surviving fraction ([6]; 1 nM): 1.11 ± 0.036
surviving fraction ([6]; 5 nM): 1.09 ± 0.05
surviving fraction ([6]; 10 nM): 1.13 ± 0.05
surviving fraction ([6]; 50 nM): 1.1 ± 0.022
surviving fraction ([6]; 100 nM): 1.04 ± 0.053
surviving fraction ([6]; 500 nM): 0.999 ± 0.024
surviving fraction ([6]; 1000 nM): 0.914 ± 0.067

HS578T BREAST
surviving fraction ([1]; 0.5 nM): 0.822 ± 0.14
surviving fraction ([1]; 1 nM): 0.96 ± 0.14
surviving fraction ([1]; 5 nM): 0.898 ± 0.05
surviving fraction ([1]; 10 nM): 0.957 ± 0.11
surviving fraction ([1]; 50 nM): 0.63 ± 0.021
surviving fraction ([1]; 100 nM): 0.494 ± 0.037
surviving fraction ([1]; 500 nM): 0.342 ± 0.04
surviving fraction ([1]; 1000 nM): 0.326 ± 0.057
surviving fraction ([6]; 0.5 nM): 0.886 ± 0.076
surviving fraction ([6]; 1 nM): 0.911 ± 0.043
surviving fraction ([6]; 5 nM): 0.937 ± 0.14
surviving fraction ([6]; 10 nM): 0.853 ± 0.12
surviving fraction ([6]; 50 nM): 0.837 ± 0.079
surviving fraction ([6]; 100 nM): 0.87 ± 0.061
surviving fraction ([6]; 500 nM): 0.713 ± 0.093
surviving fraction ([6]; 1000 nM): 0.705 ± 0.066
area under dose-response curve [3]: 2.93
area under dose-response curve [4]: 3.09
area under dose-response curve [5]: 2.37
